# Experimental data as given in ChEMBL document CHEMBL3871261, “Novel pyrazolo[3,4-d]pyrimidines as dual Src-Abl inhibitors active against mutant form of Abl and the leukemia K-562 cell line” (Eur J Med Chem, 2016).
# pIC50: −log10 of the molar value.
# Target: Tyrosine-protein kinase ABL1 (Homo sapiens, UniProt P00519)
# Assay: Inhibition of wild type recombinant human Abl using abtide as substrate by [gamma-32P]ATP based assay
# Chain of Tyrosine-protein kinase ABL1 (P00519 whole entry): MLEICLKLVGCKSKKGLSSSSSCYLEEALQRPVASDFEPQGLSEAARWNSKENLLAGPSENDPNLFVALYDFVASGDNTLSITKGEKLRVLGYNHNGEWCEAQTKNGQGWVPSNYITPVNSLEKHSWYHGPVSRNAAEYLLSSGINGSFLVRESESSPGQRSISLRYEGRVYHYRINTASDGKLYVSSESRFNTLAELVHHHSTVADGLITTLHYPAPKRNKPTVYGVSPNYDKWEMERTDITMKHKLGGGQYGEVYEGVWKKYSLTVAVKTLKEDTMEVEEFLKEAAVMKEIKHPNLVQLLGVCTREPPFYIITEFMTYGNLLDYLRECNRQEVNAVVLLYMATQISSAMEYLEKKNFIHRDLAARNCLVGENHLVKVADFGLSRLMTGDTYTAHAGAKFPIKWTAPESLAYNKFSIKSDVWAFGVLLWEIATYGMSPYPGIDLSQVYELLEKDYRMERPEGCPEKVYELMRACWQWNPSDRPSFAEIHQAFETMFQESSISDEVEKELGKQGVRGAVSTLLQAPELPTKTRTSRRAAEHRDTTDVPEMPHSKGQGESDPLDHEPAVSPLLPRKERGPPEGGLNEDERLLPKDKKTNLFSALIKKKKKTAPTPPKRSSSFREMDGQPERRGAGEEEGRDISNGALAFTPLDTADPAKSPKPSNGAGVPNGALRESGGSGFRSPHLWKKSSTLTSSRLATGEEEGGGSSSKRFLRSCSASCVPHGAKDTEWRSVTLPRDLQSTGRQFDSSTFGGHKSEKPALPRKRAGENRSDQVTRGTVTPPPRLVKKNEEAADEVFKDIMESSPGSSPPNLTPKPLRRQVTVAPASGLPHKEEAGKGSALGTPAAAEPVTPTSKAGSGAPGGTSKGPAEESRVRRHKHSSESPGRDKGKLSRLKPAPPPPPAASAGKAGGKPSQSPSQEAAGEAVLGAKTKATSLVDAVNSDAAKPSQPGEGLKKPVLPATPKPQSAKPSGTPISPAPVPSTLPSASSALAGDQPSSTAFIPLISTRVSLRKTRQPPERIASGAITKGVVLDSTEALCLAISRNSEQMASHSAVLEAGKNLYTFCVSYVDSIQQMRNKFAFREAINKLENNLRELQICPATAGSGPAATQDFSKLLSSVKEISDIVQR
row,pIC50,Compound
1,3.82,O=c1c2cnn(-c3ccccc3)c2n2c(Nc3ccccc3)nnc2n1-c1ccccc1
2,3.96,O=c1c2cnn(-c3ccccc3)c2nc(N/N=C/c2ccc(F)cc2)n1-c1ccccc1

# Organism: Homo sapiens
# Assay: Inhibition of recombinant PI3K (unknown origin) assessed as residual activity at 100 uM by [gamma-32P]ATP based assay
row,Activity [%],Compound
1,82,O=c1c2cnn(-c3ccccc3)c2n2c(-c3ccccc3)nnc2n1-c1ccccc1
2,80,COc1ccc(C(=O)NNc2nc3c(cnn3-c3ccccc3)c(=O)n2-c2ccccc2)cc1
3,100,O=C(NNc1nc2c(cnn2-c2ccccc2)c(=O)n1-c1ccccc1)c1ccccc1
4,90,COc1ccc(-c2nnc3n(-c4ccccc4)c(=O)c4cnn(-c5ccccc5)c4n23)cc1

# Test system: not listed separately
# Assay: Cytotoxicity against human K562 cells assessed as decrease in cell viability by MTT assay
# Format: functional
row,Compound,CC50 [nM]
1,O=c1c2cnn(-c3ccccc3)c2n2c(Nc3ccccc3)nnc2n1-c1ccccc1,4920
2,O=c1c2cnn(-c3ccccc3)c2n2c(-c3ccccc3)nnc2n1-c1ccccc1,920
3,COc1ccc(C(=O)NNc2nc3c(cnn3-c3ccccc3)c(=O)n2-c2ccccc2)cc1,50
4,NNc1nc2c(cnn2-c2ccccc2)c(=O)n1-c1ccccc1,2370
5,O=C(NNc1nc2c(cnn2-c2ccccc2)c(=O)n1-c1ccccc1)c1ccccc1,70
6,Cc1nc(Nc2ncc(C(=O)Nc3c(C)cccc3Cl)s2)cc(N2CCN(CCO)CC2)n1 [DASATINIB],250
7,O=c1c2cnn(-c3ccccc3)c2nc(N/N=C/c2ccc(F)cc2)n1-c1ccccc1,4060
8,COc1ccc(-c2nnc3n(-c4ccccc4)c(=O)c4cnn(-c5ccccc5)c4n23)cc1,1060
9,O=C(NNc1nc2c(cnn2-c2ccccc2)c(=O)n1-c1ccccc1)c1ccc(Cl)cc1,860
